Patent US20250230193A1, “CYCLIC COMPOUND HAVING SELECTIVE KRAS INHIBITORY EFFECT ON HRAS AND NRAS” (CHUGAI SEIYAKU KABUSHIKI KAISHA, priority 2022, published 2025)
Where a SMILES comes first, the peptide text is derived from it. Bridges are numbered along the chain shown (N, C = ends). [ ]: non-standard residue; d: D form. The star is where a group is joined. hPhe(3-Cl-4-CF3) = N[C@@H](CCc1ccc(C(F)(F)F)c(Cl)c1)C(=O)O; NPrPhe(4-CF3) = CCCN[C@@H](Cc1ccc(C(F)(F)F)cc1)C(=O)O; NMeGly(cPent) = CN[C@H](C(=O)O)C1CCCC1; Pro(4,4-F2) = O=C(O)[C@@H]1CC(F)(F)CN1; Hyp = O=C(O)[C@@H]1C[C@@H](O)CN1; NMeL = CN[C@@H](CC(C)C)C(=O)O; Morpholide = C1CN(*)CCO1; Ac5c = NC1(C(=O)O)CCCC1; Aze = O=C(O)[C@@H]1CCN1; Ac4c = NC1(C(=O)O)CCC1; Sar = CNCC(=O)O

Legend:
[1] = target: GDP-bound NRAS wild-type protein (Homo sapiens, UniProt P01111); test: Binding to NRAS by surface plasmon resonance (SPR), Single Cycle Kinetics; conditions: KD ratio NRAS/KRAS, SPR
Sequence of GDP-bound NRAS wild-type protein (P01111 whole entry): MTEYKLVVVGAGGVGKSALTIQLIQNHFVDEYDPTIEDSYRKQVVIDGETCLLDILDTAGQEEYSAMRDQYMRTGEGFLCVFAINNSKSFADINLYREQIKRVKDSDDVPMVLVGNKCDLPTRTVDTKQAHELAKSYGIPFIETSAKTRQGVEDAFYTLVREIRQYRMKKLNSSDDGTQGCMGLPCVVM

[2] = target: GDP-bound HRAS wild-type protein (Homo sapiens, UniProt P01112); test: Binding to HRAS by surface plasmon resonance (SPR), Single Cycle Kinetics; conditions: KD ratio HRAS/KRAS, SPR
Sequence of GDP-bound HRAS wild-type protein (P01112 whole entry): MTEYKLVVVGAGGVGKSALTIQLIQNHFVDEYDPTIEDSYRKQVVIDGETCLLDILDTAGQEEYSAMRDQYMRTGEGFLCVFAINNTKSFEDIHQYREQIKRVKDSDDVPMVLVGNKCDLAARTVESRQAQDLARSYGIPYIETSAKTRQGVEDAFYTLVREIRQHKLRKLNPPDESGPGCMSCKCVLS

CCCN1C(=O)[C@@H]2CCN2C(=O)CN(C)C(=O)[C@H]([C@@H](C)CC)NC(=O)[C@H](CC(C)C)N(C)C(=O)C[C@@H](C(=O)N2CCOCC2)NC(=O)[C@H](C2CCCC2)N(C)C(=O)C2(CCC2)NC(=O)[C@@H]2CCCN2C(=O)[C@H](CCc2ccc(C(F)(F)F)c(Cl)c2)NC(=O)CN(C)C(=O)[C@@H]1Cc1ccc(C(F)(F)F)cc1 [PP0350] ([NMeL]I[Sar][Aze][NPrPhe(4-CF3)][Sar][hPhe(3-Cl-4-CF3)]P[Ac4c][NMeGly(cPent)]D-Morpholide; lactam N-11)
NRAS/KRAS (ratio of KD for GDP-bound NRAS wild-type to KD for KRAS) [1]: C (A compound having a KD ratio of 0.1 or more and less than 3 is denoted as C) | HRAS/KRAS (ratio of KD for GDP-bound HRAS wild-type to KD for KRAS) [2]: B (a compound having 3 or more and less than 10 is denoted as B)

CCCN1C(=O)[C@@H]2CCN2C(=O)CN(C)C(=O)[C@H]([C@@H](C)CC)NC(=O)[C@H](CC(C)C)N(C)C(=O)C[C@@H](C(=O)N2CCOCC2)NC(=O)[C@H](C2CCCC2)N(C)C(=O)C2(CCCC2)NC(=O)[C@@H]2CC(F)(F)CN2C(=O)[C@H](CCc2ccc(C(F)(F)F)c(Cl)c2)NC(=O)CN(C)C(=O)[C@@H]1Cc1ccc(C(F)(F)F)cc1 [PP0351] ([NMeL]I[Sar][Aze][NPrPhe(4-CF3)][Sar][hPhe(3-Cl-4-CF3)][Pro(4,4-F2)][Ac5c][NMeGly(cPent)]D-Morpholide; lactam N-11)
NRAS/KRAS (ratio of KD for GDP-bound NRAS wild-type to KD for KRAS) [1]: C (A compound having a KD ratio of 0.1 or more and less than 3 is denoted as C) | HRAS/KRAS (ratio of KD for GDP-bound HRAS wild-type to KD for KRAS) [2]: B (a compound having 3 or more and less than 10 is denoted as B)

CCCN1C(=O)[C@@H]2CCN2C(=O)CN(C)C(=O)[C@H]([C@@H](C)CC)NC(=O)[C@H](CC(C)C)N(C)C(=O)C[C@@H](C(=O)N2CCOCC2)NC(=O)[C@H](C2CCCC2)N(C)C(=O)C2(CCC2)NC(=O)[C@@H]2CC(F)(F)CN2C(=O)[C@H](CCc2ccc(C(F)(F)F)c(Cl)c2)NC(=O)CN(C)C(=O)[C@@H]1Cc1ccc(C(F)(F)F)cc1 [PP0352] ([NMeL]I[Sar][Aze][NPrPhe(4-CF3)][Sar][hPhe(3-Cl-4-CF3)][Pro(4,4-F2)][Ac4c][NMeGly(cPent)]D-Morpholide; lactam N-11)
NRAS/KRAS (ratio of KD for GDP-bound NRAS wild-type to KD for KRAS) [1]: C (A compound having a KD ratio of 0.1 or more and less than 3 is denoted as C) | HRAS/KRAS (ratio of KD for GDP-bound HRAS wild-type to KD for KRAS) [2]: B (a compound having 3 or more and less than 10 is denoted as B)

CCCN1C(=O)[C@@H]2CCN2C(=O)CN(C)C(=O)[C@H]([C@@H](C)CC)NC(=O)[C@H](CC(C)C)N(C)C(=O)C[C@@H](C(=O)N2CCOCC2)NC(=O)[C@H](C2CCCC2)N(C)C(=O)C2(CCCC2)NC(=O)[C@@H]2C[C@@H](OCC)CN2C(=O)[C@H](CCc2ccc(C(F)(F)F)c(Cl)c2)NC(=O)CN(C)C(=O)[C@@H]1Cc1ccc(C(F)(F)F)cc1 [PP0353] ([NMeL]I[Sar][Aze][NPrPhe(4-CF3)][Sar][hPhe(3-Cl-4-CF3)][Hyp](Et)[Ac5c][NMeGly(cPent)]D-Morpholide; lactam N-11)
NRAS/KRAS (ratio of KD for GDP-bound NRAS wild-type to KD for KRAS) [1]: C (A compound having a KD ratio of 0.1 or more and less than 3 is denoted as C) | HRAS/KRAS (ratio of KD for GDP-bound HRAS wild-type to KD for KRAS) [2]: B (a compound having 3 or more and less than 10 is denoted as B)

CCCN1C(=O)[C@@H]2CCN2C(=O)CN(C)C(=O)[C@H]([C@@H](C)CC)NC(=O)[C@H](CC(C)C)N(C)C(=O)C[C@@H](C(=O)N2CCOCC2)NC(=O)[C@H](C2CCCC2)N(C)C(=O)C2(CCC2)NC(=O)[C@@H]2C[C@@H](OCC)CN2C(=O)[C@H](CCc2ccc(C(F)(F)F)c(Cl)c2)NC(=O)CN(C)C(=O)[C@@H]1Cc1ccc(C(F)(F)F)cc1 [PP0354] ([NMeL]I[Sar][Aze][NPrPhe(4-CF3)][Sar][hPhe(3-Cl-4-CF3)][Hyp](Et)[Ac4c][NMeGly(cPent)]D-Morpholide; lactam N-11)
NRAS/KRAS (ratio of KD for GDP-bound NRAS wild-type to KD for KRAS) [1]: C (A compound having a KD ratio of 0.1 or more and less than 3 is denoted as C) | HRAS/KRAS (ratio of KD for GDP-bound HRAS wild-type to KD for KRAS) [2]: B (a compound having 3 or more and less than 10 is denoted as B)

CCCN1C(=O)CN(C)C(=O)CN(C)C(=O)[C@H]([C@@H](C)CC)NC(=O)[C@H](CC(C)C)N(C)C(=O)C[C@@H](C(=O)N(C)C)NC(=O)[C@H](C2CCCC2)N(C)C(=O)C2(CCCC2)NC(=O)[C@@H]2CCCN2C(=O)[C@H](CCc2ccc(C(F)(F)F)c(Cl)c2)NC(=O)CN(C)C(=O)[C@@H]1Cc1ccc(C(F)(F)F)cc1 [PP0355] ([NMeL]I[Sar][Sar][NPrPhe(4-CF3)][Sar][hPhe(3-Cl-4-CF3)]P[Ac5c][NMeGly(cPent)]D-NMe2; lactam N-11)
NRAS/KRAS (ratio of KD for GDP-bound NRAS wild-type to KD for KRAS) [1]: B (a compound having 3 or more and less than 10 is denoted as B) | HRAS/KRAS (ratio of KD for GDP-bound HRAS wild-type to KD for KRAS) [2]: B (a compound having 3 or more and less than 10 is denoted as B)

CCCN1C(=O)CN(C)C(=O)CN(C)C(=O)[C@H]([C@@H](C)CC)NC(=O)[C@H](CC(C)C)N(C)C(=O)C[C@@H](C(=O)N(C)C)NC(=O)[C@H](C2CCCC2)N(C)C(=O)C2(CCC2)NC(=O)[C@@H]2CCCN2C(=O)[C@H](CCc2ccc(C(F)(F)F)c(Cl)c2)NC(=O)CN(C)C(=O)[C@@H]1Cc1ccc(C(F)(F)F)cc1 [PP0356] ([NMeL]I[Sar][Sar][NPrPhe(4-CF3)][Sar][hPhe(3-Cl-4-CF3)]P[Ac4c][NMeGly(cPent)]D-NMe2; lactam N-11)
NRAS/KRAS (ratio of KD for GDP-bound NRAS wild-type to KD for KRAS) [1]: B (a compound having 3 or more and less than 10 is denoted as B) | HRAS/KRAS (ratio of KD for GDP-bound HRAS wild-type to KD for KRAS) [2]: B (a compound having 3 or more and less than 10 is denoted as B)

CCCN1C(=O)CN(C)C(=O)CN(C)C(=O)[C@H]([C@@H](C)CC)NC(=O)[C@H](CC(C)C)N(C)C(=O)C[C@@H](C(=O)N(C)C)NC(=O)[C@H](C2CCCC2)N(C)C(=O)C2(CCCC2)NC(=O)[C@@H]2CC(F)(F)CN2C(=O)[C@H](CCc2ccc(C(F)(F)F)c(Cl)c2)NC(=O)CN(C)C(=O)[C@@H]1Cc1ccc(C(F)(F)F)cc1 [PP0357] ([NMeL]I[Sar][Sar][NPrPhe(4-CF3)][Sar][hPhe(3-Cl-4-CF3)][Pro(4,4-F2)][Ac5c][NMeGly(cPent)]D-NMe2; lactam N-11)
NRAS/KRAS (ratio of KD for GDP-bound NRAS wild-type to KD for KRAS) [1]: B (a compound having 3 or more and less than 10 is denoted as B) | HRAS/KRAS (ratio of KD for GDP-bound HRAS wild-type to KD for KRAS) [2]: B (a compound having 3 or more and less than 10 is denoted as B)

CCCN1C(=O)CN(C)C(=O)CN(C)C(=O)[C@H]([C@@H](C)CC)NC(=O)[C@H](CC(C)C)N(C)C(=O)C[C@@H](C(=O)N(C)C)NC(=O)[C@H](C2CCCC2)N(C)C(=O)C2(CCC2)NC(=O)[C@@H]2CC(F)(F)CN2C(=O)[C@H](CCc2ccc(C(F)(F)F)c(Cl)c2)NC(=O)CN(C)C(=O)[C@@H]1Cc1ccc(C(F)(F)F)cc1 [PP0358] ([NMeL]I[Sar][Sar][NPrPhe(4-CF3)][Sar][hPhe(3-Cl-4-CF3)][Pro(4,4-F2)][Ac4c][NMeGly(cPent)]D-NMe2; lactam N-11)
NRAS/KRAS (ratio of KD for GDP-bound NRAS wild-type to KD for KRAS) [1]: B (a compound having 3 or more and less than 10 is denoted as B) | HRAS/KRAS (ratio of KD for GDP-bound HRAS wild-type to KD for KRAS) [2]: C (A compound having a KD ratio of 0.1 or more and less than 3 is denoted as C)

CCCN1C(=O)CN(C)C(=O)CN(C)C(=O)[C@H]([C@@H](C)CC)NC(=O)[C@H](CC(C)C)N(C)C(=O)C[C@@H](C(=O)N(C)C)NC(=O)[C@H](C2CCCC2)N(C)C(=O)C2(CCCC2)NC(=O)[C@@H]2C[C@@H](OCC)CN2C(=O)[C@H](CCc2ccc(C(F)(F)F)c(Cl)c2)NC(=O)CN(C)C(=O)[C@@H]1Cc1ccc(C(F)(F)F)cc1 [PP0359] ([NMeL]I[Sar][Sar][NPrPhe(4-CF3)][Sar][hPhe(3-Cl-4-CF3)][Hyp](Et)[Ac5c][NMeGly(cPent)]D-NMe2; lactam N-11)
NRAS/KRAS (ratio of KD for GDP-bound NRAS wild-type to KD for KRAS) [1]: B (a compound having 3 or more and less than 10 is denoted as B) | HRAS/KRAS (ratio of KD for GDP-bound HRAS wild-type to KD for KRAS) [2]: B (a compound having 3 or more and less than 10 is denoted as B)

CCCN1C(=O)CN(C)C(=O)CN(C)C(=O)[C@H]([C@@H](C)CC)NC(=O)[C@H](CC(C)C)N(C)C(=O)C[C@@H](C(=O)N(C)C)NC(=O)[C@H](C2CCCC2)N(C)C(=O)C2(CCC2)NC(=O)[C@@H]2C[C@@H](OCC)CN2C(=O)[C@H](CCc2ccc(C(F)(F)F)c(Cl)c2)NC(=O)CN(C)C(=O)[C@@H]1Cc1ccc(C(F)(F)F)cc1 [PP0360] ([NMeL]I[Sar][Sar][NPrPhe(4-CF3)][Sar][hPhe(3-Cl-4-CF3)][Hyp](Et)[Ac4c][NMeGly(cPent)]D-NMe2; lactam N-11)
NRAS/KRAS (ratio of KD for GDP-bound NRAS wild-type to KD for KRAS) [1]: B (a compound having 3 or more and less than 10 is denoted as B) | HRAS/KRAS (ratio of KD for GDP-bound HRAS wild-type to KD for KRAS) [2]: C (A compound having a KD ratio of 0.1 or more and less than 3 is denoted as C)

CCCN1C(=O)CN(C)C(=O)CNC(=O)[C@H]([C@@H](C)CC)NC(=O)[C@H](CC(C)C)N(C)C(=O)C[C@@H](C(=O)N(C)C)NC(=O)[C@H](C2CCCC2)N(C)C(=O)C2(CCCC2)NC(=O)[C@@H]2CCCN2C(=O)[C@H](CCc2ccc(C(F)(F)F)c(Cl)c2)NC(=O)CN(C)C(=O)[C@@H]1Cc1ccc(C(F)(F)F)cc1 [PP0361] ([NMeL]IG[Sar][NPrPhe(4-CF3)][Sar][hPhe(3-Cl-4-CF3)]P[Ac5c][NMeGly(cPent)]D-NMe2; lactam N-11)
NRAS/KRAS (ratio of KD for GDP-bound NRAS wild-type to KD for KRAS) [1]: B (a compound having 3 or more and less than 10 is denoted as B) | HRAS/KRAS (ratio of KD for GDP-bound HRAS wild-type to KD for KRAS) [2]: C (A compound having a KD ratio of 0.1 or more and less than 3 is denoted as C)

CCCN1C(=O)CN(C)C(=O)CNC(=O)[C@H]([C@@H](C)CC)NC(=O)[C@H](CC(C)C)N(C)C(=O)C[C@@H](C(=O)N(C)C)NC(=O)[C@H](C2CCCC2)N(C)C(=O)C2(CCC2)NC(=O)[C@@H]2CCCN2C(=O)[C@H](CCc2ccc(C(F)(F)F)c(Cl)c2)NC(=O)CN(C)C(=O)[C@@H]1Cc1ccc(C(F)(F)F)cc1 [PP0362] ([NMeL]IG[Sar][NPrPhe(4-CF3)][Sar][hPhe(3-Cl-4-CF3)]P[Ac4c][NMeGly(cPent)]D-NMe2; lactam N-11)
NRAS/KRAS (ratio of KD for GDP-bound NRAS wild-type to KD for KRAS) [1]: B (a compound having 3 or more and less than 10 is denoted as B) | HRAS/KRAS (ratio of KD for GDP-bound HRAS wild-type to KD for KRAS) [2]: B (a compound having 3 or more and less than 10 is denoted as B)
